# Columns and labels:
# [1] = target: T1, cystathionine-γ-lyase (CSE) (Homo sapiens, UniProt P32929); assay: methylene blue H2S assay, secondary plot of Lineweaver-Burk slopes; assay type: biochemical
# T1 construct: gene CTH; N-terminal GST fusion (pGEX-4T3), expressed in E. coli BL21(DE3) Codon Plus; eluted with reduced GSH, no tag cleavage described
# [2] = target: T1, cystathionine-γ-lyase (CSE); assay: methylene blue H2S assay, concentration-response; assay type: biochemical
# [3] = target: T2, cystathionine-ß-synthase (CBS) (Homo sapiens, UniProt P35520); assay: absorbance spectroscopy; assay type: binding; settings: bound at Lys119
# T2 construct: N-terminal GST fusion (pGEX-Kg), expressed in E. coli BL21(DE3) Codon Plus; eluted with reduced GSH, no tag cleavage described; homotetramer
# T2 sequence (P35520 1-551): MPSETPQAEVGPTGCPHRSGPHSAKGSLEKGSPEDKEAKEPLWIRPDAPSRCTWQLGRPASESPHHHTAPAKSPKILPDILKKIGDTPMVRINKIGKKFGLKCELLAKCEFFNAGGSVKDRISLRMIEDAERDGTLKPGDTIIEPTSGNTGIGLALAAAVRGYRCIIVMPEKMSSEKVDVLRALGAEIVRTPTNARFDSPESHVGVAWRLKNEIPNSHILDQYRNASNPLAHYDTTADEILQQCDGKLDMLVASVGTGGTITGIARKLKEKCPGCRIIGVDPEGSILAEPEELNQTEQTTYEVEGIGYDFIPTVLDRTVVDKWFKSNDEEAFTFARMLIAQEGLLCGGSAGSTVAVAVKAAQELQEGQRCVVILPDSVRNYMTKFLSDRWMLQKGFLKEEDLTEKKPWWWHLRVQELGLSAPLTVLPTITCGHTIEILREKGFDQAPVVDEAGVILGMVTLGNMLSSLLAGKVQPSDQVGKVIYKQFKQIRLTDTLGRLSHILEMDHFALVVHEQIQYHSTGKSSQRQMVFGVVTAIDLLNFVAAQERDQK
# [4] = target: T1, cystathionine-γ-lyase (CSE); assay: absorbance spectroscopy; assay type: binding; settings: covalently attached to Lys212
# T1 sequence (P32929 whole entry, the tested form may be a part): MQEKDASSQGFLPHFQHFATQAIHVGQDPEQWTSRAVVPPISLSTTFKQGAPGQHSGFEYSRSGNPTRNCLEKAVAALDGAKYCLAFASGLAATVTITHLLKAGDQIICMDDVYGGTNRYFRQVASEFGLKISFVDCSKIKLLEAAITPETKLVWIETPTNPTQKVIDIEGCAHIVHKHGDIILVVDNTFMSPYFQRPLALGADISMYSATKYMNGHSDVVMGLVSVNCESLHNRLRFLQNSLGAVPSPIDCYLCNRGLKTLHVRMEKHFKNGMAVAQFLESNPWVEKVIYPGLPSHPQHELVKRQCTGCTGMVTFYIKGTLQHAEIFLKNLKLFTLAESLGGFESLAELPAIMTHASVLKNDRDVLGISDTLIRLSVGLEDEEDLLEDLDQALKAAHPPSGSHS
structure (smiles),measurement,setting,value
"C#CCNC(=O)[C@@H]1CSC(=O)N1 [2a, compound 2a]",Ki,[1],13 µM
same,IC50,[2],6.3 ± 1 µM
C#CCC(N)C(=O)O (centres unmarked) [PAG],IC50,[2],42.2 ± 1.1 µM
Cc1ncc(COP(=O)(O)O)c(C=O)c1O [PLP],absorbance spectroscopy,[3],enzymes are correctly folded and bind the respective prosthetic groups
same,absorbance spectroscopy,[4],enzymes are correctly folded and bind the respective prosthetic groups
